Entries after “also recorded” stand apart in the source; their conditions may differ.
Legend:
H3N2 IAV = test system: H3N2 IAV; set-up: method as in PMID 23527573; details: Calu-3 cells; cited from earlier work
SARS-CoV-2 = test system: SARS-CoV-2; set-up: method as in PMID 32703818; details: Calu-3 cells, 50 μM, 24 h p.i.; cited from earlier work
Calu-3 cells = test system: Calu-3 cells; set-up: method as in PMID 32703818; details: 50 μM; cited from earlier work
H1N1 IAV = test system: H1N1 IAV; set-up: method as in PMID 23527573; details: Calu-3 cells; cited from earlier work
CYP2D6 = CYP2D6 (Homo sapiens, UniProt P10635); assay: Fluorometric CYP2D6 activity assay in human hepatic microsomes; details: human liver microsomes, protease inhibitors at 50 µM, 15 min 37 °C
CYP1A2 = target: T1, CYP1A2 (Homo sapiens, UniProt P05177); assay: Fluorometric CYP1A2 activity assay in human hepatic microsomes; details: human liver microsomes, protease inhibitors at 50 µM, 15 min 37 °C
T1 sequence (P05177 1-516): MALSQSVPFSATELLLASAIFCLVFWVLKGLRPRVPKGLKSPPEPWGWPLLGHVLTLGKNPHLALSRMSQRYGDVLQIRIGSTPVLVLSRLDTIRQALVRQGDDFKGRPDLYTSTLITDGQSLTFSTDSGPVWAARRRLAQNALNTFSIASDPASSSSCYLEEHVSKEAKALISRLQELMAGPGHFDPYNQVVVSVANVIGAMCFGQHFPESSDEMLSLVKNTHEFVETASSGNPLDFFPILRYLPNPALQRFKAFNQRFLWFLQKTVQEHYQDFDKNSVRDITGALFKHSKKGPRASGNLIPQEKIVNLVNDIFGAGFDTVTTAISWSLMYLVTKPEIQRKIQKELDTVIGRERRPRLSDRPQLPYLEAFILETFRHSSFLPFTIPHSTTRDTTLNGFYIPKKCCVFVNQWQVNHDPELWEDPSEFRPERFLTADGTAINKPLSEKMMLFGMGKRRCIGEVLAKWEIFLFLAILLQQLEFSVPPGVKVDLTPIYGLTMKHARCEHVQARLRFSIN

CYP2C9 = CYP2C9 (Homo sapiens, UniProt P11712); assay: Fluorometric CYP2C9 activity assay in human hepatic microsomes; details: human liver microsomes, protease inhibitors at 50 µM, 15 min 37 °C
[1] = test system: cynomolgus monkey hepatocytes; set-up: method as in PMID 31391268; details: cited from earlier work
CYP3A4 = CYP3A4 (Homo sapiens, UniProt P08684); assay: Fluorometric CYP3A4 activity assay in human hepatic microsomes; details: human liver microsomes, 10, 25 and 50 µM
[2] = test system: H9N2 IAV strain A/quail/Shantou/782/00; assay type: cell-based, influenza A virus; details: MDCK-II cells, MOI 0.01, 50 µM, 24 h
CYP2C19 = CYP2C19 (Homo sapiens, UniProt P33261); assay: Fluorometric CYP2C19 activity assay in human hepatic microsomes; details: human liver microsomes, protease inhibitors at 50 µM, 15 min 37 °C
α-1 acidic glycoprotein = test system: α-1 acidic glycoprotein; set-up: method as in PMID 37865989; details: cited from earlier work
[3] = Prediction of in vivo human PK parameters from hepatocyte clearance; assay type: in vitro ADME; details: for Classification (extraction type) / Extraction ratio EH: predicted; for Predicted Cl, CLH: predicted from hepatocyte Clint, fu = 1
[4] = test system: human primary hepatocytes; assay: Depletion of inhibitors in human primary hepatocyte suspension (LC-MS/MS); details: primary human hepatocytes, 10 µM; for Parent compound retained at the 120-min sampling point: % of 0-min concentration, mean ± S.E.M.; for Sampling interval at which significant depletion was first observed: sampling 0-120 min
[5] = as above; details: human, cryopreserved primary human hepatocytes in suspension; for CLint scaled at 10 µM: intrinsic clearance from primary human hepatocytes scaled to whole liver/body weight
H1N1 PR8 = test system: H1N1 PR8; set-up: method as in PMID 23365447; details: Calu-3 cells; cited from earlier work
[6] = test system: primary human hepatocytes; details: 50 μM; cited from earlier work

Sequence of CYP3A4 (P08684 whole entry): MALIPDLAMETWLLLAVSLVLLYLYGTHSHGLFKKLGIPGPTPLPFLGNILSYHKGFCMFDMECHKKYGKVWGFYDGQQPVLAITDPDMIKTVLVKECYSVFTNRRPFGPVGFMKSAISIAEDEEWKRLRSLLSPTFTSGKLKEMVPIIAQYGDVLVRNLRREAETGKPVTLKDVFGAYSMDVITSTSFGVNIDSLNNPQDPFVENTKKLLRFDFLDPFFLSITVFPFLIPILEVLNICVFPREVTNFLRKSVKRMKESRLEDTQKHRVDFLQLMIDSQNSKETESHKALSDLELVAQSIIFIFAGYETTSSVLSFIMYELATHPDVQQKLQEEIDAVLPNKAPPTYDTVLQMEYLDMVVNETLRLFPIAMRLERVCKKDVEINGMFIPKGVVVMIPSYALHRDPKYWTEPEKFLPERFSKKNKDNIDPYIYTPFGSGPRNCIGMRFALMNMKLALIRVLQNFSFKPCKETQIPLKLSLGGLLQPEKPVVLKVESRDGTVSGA
Sequence of CYP2C9 (P11712 whole entry): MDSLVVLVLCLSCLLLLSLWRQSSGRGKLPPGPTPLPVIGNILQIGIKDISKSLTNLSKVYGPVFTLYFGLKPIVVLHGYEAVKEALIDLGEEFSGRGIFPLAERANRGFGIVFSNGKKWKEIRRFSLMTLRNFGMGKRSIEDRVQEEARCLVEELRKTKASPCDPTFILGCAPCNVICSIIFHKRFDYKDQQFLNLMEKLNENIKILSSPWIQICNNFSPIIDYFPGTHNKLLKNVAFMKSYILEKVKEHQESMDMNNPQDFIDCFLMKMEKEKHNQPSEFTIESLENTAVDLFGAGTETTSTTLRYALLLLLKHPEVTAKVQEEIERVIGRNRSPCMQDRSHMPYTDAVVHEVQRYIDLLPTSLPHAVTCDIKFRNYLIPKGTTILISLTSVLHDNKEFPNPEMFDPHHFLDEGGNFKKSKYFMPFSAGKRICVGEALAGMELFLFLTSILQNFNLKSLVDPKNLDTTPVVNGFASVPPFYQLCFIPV
Sequence of CYP2D6 (P10635 whole entry): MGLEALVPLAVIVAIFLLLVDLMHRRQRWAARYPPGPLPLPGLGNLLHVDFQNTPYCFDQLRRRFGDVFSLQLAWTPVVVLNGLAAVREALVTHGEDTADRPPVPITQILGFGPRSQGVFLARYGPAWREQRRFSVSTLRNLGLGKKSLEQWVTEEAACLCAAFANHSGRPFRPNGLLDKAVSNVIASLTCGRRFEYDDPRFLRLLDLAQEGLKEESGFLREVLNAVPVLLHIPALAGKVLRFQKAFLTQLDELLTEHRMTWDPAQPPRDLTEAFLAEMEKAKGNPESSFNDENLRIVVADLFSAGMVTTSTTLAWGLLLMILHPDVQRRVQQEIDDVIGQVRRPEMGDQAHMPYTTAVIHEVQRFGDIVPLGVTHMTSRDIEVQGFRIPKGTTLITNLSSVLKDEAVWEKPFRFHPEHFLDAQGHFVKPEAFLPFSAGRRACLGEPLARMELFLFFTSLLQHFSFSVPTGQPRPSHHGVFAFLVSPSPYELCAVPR
Sequence of CYP2C19 (P33261 whole entry): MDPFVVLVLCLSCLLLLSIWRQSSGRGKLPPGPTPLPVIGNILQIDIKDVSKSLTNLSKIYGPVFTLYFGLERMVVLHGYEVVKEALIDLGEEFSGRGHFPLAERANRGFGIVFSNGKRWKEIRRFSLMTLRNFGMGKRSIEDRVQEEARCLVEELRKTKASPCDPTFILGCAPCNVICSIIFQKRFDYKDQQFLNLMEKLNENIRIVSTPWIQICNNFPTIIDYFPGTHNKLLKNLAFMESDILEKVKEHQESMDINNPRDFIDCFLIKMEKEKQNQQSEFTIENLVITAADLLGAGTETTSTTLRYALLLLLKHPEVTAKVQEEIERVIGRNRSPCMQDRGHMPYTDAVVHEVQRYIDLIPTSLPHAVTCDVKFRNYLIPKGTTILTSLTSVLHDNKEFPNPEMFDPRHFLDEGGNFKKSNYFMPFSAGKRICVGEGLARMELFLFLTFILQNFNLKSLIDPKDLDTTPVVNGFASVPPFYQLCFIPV

Row | Structure (SMILES) | Inhibition of CYP2D6 activity (CYP2D6) | Inhibition of CYP1A2 activity (CYP1A2) | Inhibition of CYP2C9 activity (CYP2C9) | Effect on CYP3A4 enzyme activity (CYP3A4) | Inhibition of CYP2C19 activity (CYP2C19) | Classification (extraction type) [3] | Extraction ratio EH [3] | Predicted Cl, CLH [3] | Parent compound retained at the 120-min sampling point [4] | Sampling interval at which significant depletion was first observed [4] | half-life at 10 µM [5] | CLint scaled at 10 µM [5] | further results
1 | N=C(N)c1cccc(C[C@H](NS(=O)(=O)c2cccc(-c3ccc(Cl)cc3Cl)c2)C(=O)N2CCC(CCN)CC2)c1.O=C(O)C(F)(F)F.O=C(O)C(F)(F)F [MI-432, reference compound] |  |  |  |  |  |  |  |  |  |  |  |  | Inhibition of proteolytic activation and replication of H3N2 IAV (H3N2 IAV): notable efficacy; Reduction of SARS-CoV-2 viral titers compared to control samples (SARS-CoV-2): 75 fold; Influence on Calu-3 cell viability (Calu-3 cells): without influencing Calu-3 cell viabilitiy significantly; Inhibition of proteolytic activation and replication of H1N1 IAV (H1N1 IAV): notable efficacy
2 | COc1ccc(-c2cccc(S(=O)(=O)N[C@@H](Cc3cccc(C(=N)N)c3)C(=O)N3CCC(N)CC3)c2)c(OC)c1 [MI-472] | No significant CYP inhibitory potential | No significant CYP inhibitory potential | No significant CYP inhibitory potential | significant inhibitory effect | No significant CYP inhibitory potential | Intermediate | 0.36 | 7.40 | 65.1 ± 5.5% | 30 min | 3.84 h | 19.8 mL/min/kg | Treatment time after which significant conversion was seen [1]: 60 to 120 min; H9N2 viral spread / formation of viral foci [2]: only slightly reduced formation of viral foci; Interaction with α-1 acidic glycoprotein (α-1 acidic glycoprotein): complex formation
3 | N=C(N)c1cccc(C[C@H](NS(=O)(=O)c2cccc(NC(=O)CCN)c2)C(=O)N2CCC(CCN)CC2)c1 [MI-21] | No significant CYP inhibitory potential | No significant CYP inhibitory potential | No significant CYP inhibitory potential | did not cause significant reduction; also recorded: did not significantly suppress | No significant CYP inhibitory potential | Intermediate | 0.53 | 10.92 | 16.6 ± 1.6% | 30 min | 0.52 h | 147 mL/min/kg | Inhibition of replication of H1N1 PR8 (H1N1 PR8): promising inhibition; Cell toxicity [6]: no cell toxicity

Reference: paper PMC11258351, “PK/PD investigation of antiviral host matriptase/TMPRSS2 inhibitors in cell models” (Scientific Reports, 2024)
